Results taken from paper PMC4251536 (Journal of Natural Products, 2014).

Key:
[1] = system: voltage-gated sodium channels (VGSCs); format: cell-based, mouse; settings: veratridine-stimulated Na+ influx, murine cerebrocortical neurons
[2] = system: human lung adenocarcinoma cells; settings: cited from earlier work
[3] = system: sodium ion channel in Neuro-2a cells; settings: read-out: IC50, sodium ion channel blocking activity (veratridine-induced sodium influx), natural product; cited from earlier work

| Structure (SMILES) | fold more potent than the other analogues tested [1] | cytotoxicity (in words) [2] | IC50 [3] |
| --- | --- | --- | --- |
| C[C@H]1CCCC(=O)N(C)/C=C/CC[C@H](C)C(=O)O[C@H](C(C)(C)C)C1 [compound 3, (+)-palmyrolide A] | 3–9 fold | – | – |
| C[C@@H]1CCCC(=O)N(C)/C=C/CC[C@@H](C)C(=O)O[C@@H](C(C)(C)C)C1 [compound 1, (−)-palmyrolide A] | 3–9 fold | no appreciable cytotoxicity | 5.2 µM |
| C[C@@H]1CCCC(=O)N(C)CCCC[C@@H](C)C(=O)O[C@@H](C(C)(C)C)C1 [compound 5, 17,18-Dihydropalmyrolide A] | 3–9 fold | – | – |
